Measurements: PMC3288161 (Accounts of Chemical Research, 2011)

Key:
[1] = target: T1, SCO7701 (C-methyltransferase) (Streptomyces coelicolor, UniProt Q9F1Y5); test: incubation with recombinant enzyme, product identification; format: biochemical
T1 sequence (Q9F1Y5 1-292): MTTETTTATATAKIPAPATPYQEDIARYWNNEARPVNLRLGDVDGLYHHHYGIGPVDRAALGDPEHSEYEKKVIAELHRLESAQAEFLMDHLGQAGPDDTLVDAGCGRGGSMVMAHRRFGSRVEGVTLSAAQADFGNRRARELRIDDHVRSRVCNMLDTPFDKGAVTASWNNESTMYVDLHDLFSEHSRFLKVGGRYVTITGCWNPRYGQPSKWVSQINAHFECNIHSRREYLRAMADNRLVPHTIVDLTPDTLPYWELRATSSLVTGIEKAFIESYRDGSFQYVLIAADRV

[2] = target: T2, epi-isozizaene synthase (SCO5222) (Streptomyces coelicolor, UniProt Q9K499); test: as above; format: biochemical
T2 sequence (Q9K499 1-361): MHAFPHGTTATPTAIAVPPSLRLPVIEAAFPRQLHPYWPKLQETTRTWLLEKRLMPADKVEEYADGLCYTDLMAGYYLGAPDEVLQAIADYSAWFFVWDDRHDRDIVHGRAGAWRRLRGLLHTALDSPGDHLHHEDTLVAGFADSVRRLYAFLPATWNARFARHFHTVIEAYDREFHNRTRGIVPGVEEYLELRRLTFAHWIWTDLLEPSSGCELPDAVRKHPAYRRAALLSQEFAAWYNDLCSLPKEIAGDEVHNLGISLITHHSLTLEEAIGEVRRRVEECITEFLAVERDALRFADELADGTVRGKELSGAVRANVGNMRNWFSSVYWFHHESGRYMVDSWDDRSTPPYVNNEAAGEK

[3] = target: T3, PtlA (SAV_2998), pentalenene synthase (Streptomyces avermitilis, UniProt Q82IY4); test: as above; format: biochemical
T3 sequence (Q82IY4 1-336): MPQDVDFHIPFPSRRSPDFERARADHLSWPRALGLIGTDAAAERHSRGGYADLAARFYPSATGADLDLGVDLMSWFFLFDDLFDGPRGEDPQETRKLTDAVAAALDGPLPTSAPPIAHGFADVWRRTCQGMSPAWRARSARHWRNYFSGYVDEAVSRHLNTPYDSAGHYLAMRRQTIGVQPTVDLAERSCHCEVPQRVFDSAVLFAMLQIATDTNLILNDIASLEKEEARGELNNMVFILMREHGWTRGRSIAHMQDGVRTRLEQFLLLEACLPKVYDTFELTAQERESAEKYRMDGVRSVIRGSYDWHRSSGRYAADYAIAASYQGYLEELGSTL

[4] = target: T4, avermitilol synthase (SAV_76) (Streptomyces avermitilis, UniProt Q82RR7); test: incubation with purified recombinant enzyme, product identification; format: biochemical; conditions: main product avermitilol
T4 sequence (Q82RR7 1-335): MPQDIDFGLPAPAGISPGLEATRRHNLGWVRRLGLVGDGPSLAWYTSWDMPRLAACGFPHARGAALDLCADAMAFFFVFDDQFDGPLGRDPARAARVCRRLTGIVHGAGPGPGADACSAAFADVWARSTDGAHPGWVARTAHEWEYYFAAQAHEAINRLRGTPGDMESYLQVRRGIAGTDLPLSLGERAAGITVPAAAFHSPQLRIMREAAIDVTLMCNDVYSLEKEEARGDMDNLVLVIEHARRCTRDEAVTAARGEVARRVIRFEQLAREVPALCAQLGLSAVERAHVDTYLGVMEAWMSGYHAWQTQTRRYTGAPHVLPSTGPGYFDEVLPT

PtlI (SAV_2999) = PtlI (SAV_2999) (Streptomyces avermitilis, UniProt Q82IY3); conditions: oxidation to pentalenal

C[S+](CC[C@H](N)C(=O)O)C[C@H]1O[C@@H](n2cnc3c(N)ncnc32)[C@H](O)[C@@H]1O (stereo partly drawn) [S-adenosyl-L-methionine]
incubation with recombinant enzyme, product identification ([1]; co-substrate GPP, methyl donor): Incubation of GPP and SAM with recombinant SCO7701 gave exclusively

CC(C)=CCC/C(C)=C/COP(=O)(O)OP(=O)(O)O [compound 3, geranyl diphosphate]
incubation with recombinant enzyme, product identification ([1]; co-substrate SAM, product 2-MeGPP): Incubation of GPP and SAM with recombinant SCO7701 gave exclusively

CC(C)=CCC/C(C)=C/CC/C(C)=C/COP(=O)(O)OP(=O)(O)O [compound 4, farnesyl diphosphate]
incubation with recombinant enzyme, product identification [2]: Incubation of the recombinant protein with FPP gave as the major product | incubation with recombinant enzyme, product identification [3]: Incubation of recombinant PtlA with FPP gave pentalenene | incubation with purified recombinant enzyme, product identification [4]: Incubation of the purified recombinant SAV76 protein with FPP gave a mixture

CC1=C[C@@H]2CC(C)(C)C[C@@]23[C@H](C)CC[C@@H]13 [compound 6, pentalenene]
expressed enzyme, product identification (PtlI (SAV_2999)): cytochrome P450 catalyzing the 3-step oxidation of pentalenene to pentalenal
